Assay results reported in PubChem BioAssay AID1963982 (Molecular Pharmacology Branch, DTP, NCI, 2024).
Several values for one entry are separate records, joined by “and”; a condition that tells them apart may be missing. Equal values may be shown once.

System: 313798-341-R-J2-PDC spheroids, viability
Test: Anticancer human tumor 313798-341-R-J2-PDC patient-derived cervical squamous cell carcinoma cell line growth inhibition [PI3K]
Details: spheroids with HUVEC and MSC; for viability, T/C: stronger effect = lower value
Method in brief: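 We assembled tumor spheroids that included a stromal compartment of HUVEC and MSCs, then exposed them to targeted agents alone and together with PI3K pathway inhibitors. Concentration series descended by half-log from clinically achievable Cmax levels. Viability served as the endpoint.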

[1] = curve of first compound, second compound 0.0316 µM
[2] = curve of first compound, second compound 0.1 µM
[3] = curve of first compound, second compound 0.316 µM
[4] = curve of first compound, second compound 1 µM
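Also: spheroids exposed to compounds for seven days.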
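For viability, T/C in this document: 100% = DMSO vehicle control viability.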

## Cn1cnc2c(F)c(Nc3ccc(Br)cc3Cl)c(C(=O)NOCCO)cc21 + CC(Nc1ncnc2nc[nH]c12)c1cc2cccc(Cl)c2c(=O)n1-c1ccccc1
[1]
  IC50: > 3 µM
[2]
  IC50: > 3 µM
[3]
  IC50: > 3 µM
[4]
  IC50: > 3 µM
Curve of first compound, second compound 3.16 µM
  IC50: > 3 µM
Curve of first compound, second compound 10 µM
  IC50: > 3 µM
Second compound 0.0316 µM, first compound 0.00949 µM
  viability, T/C: 97.3%
Second compound 0.0316 µM, first compound 0.03 µM
  viability, T/C: 99%
Second compound 0.0316 µM, first compound 0.0949 µM
  viability, T/C: 92.1%
Second compound 0.0316 µM, first compound 0.3 µM
  viability, T/C: 91.4%
Second compound 0.0316 µM, first compound 0.949 µM
  viability, T/C: 89.2%
Second compound 0.0316 µM, first compound 3 µM
  viability, T/C: 77.9%
Second compound 0.1 µM, first compound 0.00949 µM
  viability, T/C: 85.7%
Second compound 0.1 µM, first compound 0.03 µM
  viability, T/C: 95.7%
Second compound 0.1 µM, first compound 0.0949 µM
  viability, T/C: 89%
Second compound 0.1 µM, first compound 0.3 µM
  viability, T/C: 95.2%
Second compound 0.1 µM, first compound 0.949 µM
  viability, T/C: 80%
Second compound 0.1 µM, first compound 3 µM
  viability, T/C: 81.3%
Second compound 0.316 µM, first compound 0.00949 µM
  viability, T/C: 87.2%
Second compound 0.316 µM, first compound 0.03 µM
  viability, T/C: 93.7%
Second compound 0.316 µM, first compound 0.0949 µM
  viability, T/C: 87.6%
Second compound 0.316 µM, first compound 0.3 µM
  viability, T/C: 92.7%
Second compound 0.316 µM, first compound 0.949 µM
  viability, T/C: 87.1%
Second compound 0.316 µM, first compound 3 µM
  viability, T/C: 74.6%
Second compound 1 µM, first compound 0.00949 µM
  viability, T/C: 96.6%
Second compound 1 µM, first compound 0.03 µM
  viability, T/C: 98.1%
Second compound 1 µM, first compound 0.0949 µM
  viability, T/C: 90.3%
Second compound 1 µM, first compound 0.3 µM
  viability, T/C: 86.1%
Second compound 1 µM, first compound 0.949 µM
  viability, T/C: 90.1%
Second compound 1 µM, first compound 3 µM
  viability, T/C: 71.5%
Second compound 3.16 µM, first compound 0.00949 µM
  viability, T/C: 92.4%
Second compound 3.16 µM, first compound 0.03 µM
  viability, T/C: 87.7%
Second compound 3.16 µM, first compound 0.0949 µM
  viability, T/C: 94.3%
Second compound 3.16 µM, first compound 0.3 µM
  viability, T/C: 89%
Second compound 3.16 µM, first compound 0.949 µM
  viability, T/C: 79.7%
Second compound 3.16 µM, first compound 3 µM
  viability, T/C: 76.8%
Second compound 10 µM, first compound 0.00949 µM
  viability, T/C: 75.2%
Second compound 10 µM, first compound 0.03 µM
  viability, T/C: 81.3%
Second compound 10 µM, first compound 0.0949 µM
  viability, T/C: 80.8%
Second compound 10 µM, first compound 0.3 µM
  viability, T/C: 73.8%
Second compound 10 µM, first compound 0.949 µM
  viability, T/C: 80.5%
Second compound 10 µM, first compound 3 µM
  viability, T/C: 53.1%

## Cn1ncnc1[C@H]1c2n[nH]c(=O)c3cc(F)cc(c23)N[C@@H]1c1ccc(F)cc1
Compound 0.001 µM
  viability, T/C: 94.9% [middle of 4 runs]
Compound 0.00316 µM
  viability, T/C: 94.7% [middle of 4 runs]
Compound 0.01 µM
  viability, T/C: 104% (2×) and 88.8% and 114%
Compound 0.0316 µM
  viability, T/C: 95.9% [middle of 4 runs]
Compound 0.1 µM
  viability, T/C: 89% [middle of 4 runs]
Curve of compound
  IC50: > 0.1 µM

## Cn1nccc1Nc1nccc(-c2ccn(C(CO)c3ccc(Cl)c(F)c3)c(=O)c2)n1 (stereo not given) + CC(Nc1ccc2c(c1)OCCn1cc(N3C(=O)OCC3C(F)F)nc1-2)C(N)=O
Curve of first compound, second compound 0.00316 µM
  IC50: > 10 µM
Curve of first compound, second compound 0.01 µM
  IC50: > 10 µM
[1]
  IC50: > 10 µM
[2]
  IC50: > 10 µM
[3]
  IC50: > 10 µM
[4]
  IC50: 0.219 µM
Second compound 0.00316 µM, first compound 0.0316 µM
  viability, T/C: 98.2%
Second compound 0.00316 µM, first compound 0.1 µM
  viability, T/C: 96%
Second compound 0.00316 µM, first compound 0.316 µM
  viability, T/C: 90.5%
Second compound 0.00316 µM, first compound 1 µM
  viability, T/C: 97.2%
Second compound 0.00316 µM, first compound 3.16 µM
  viability, T/C: 103%
Second compound 0.00316 µM, first compound 10 µM
  viability, T/C: 100%
Second compound 0.01 µM, first compound 0.0316 µM
  viability, T/C: 98.7%
Second compound 0.01 µM, first compound 0.1 µM
  viability, T/C: 97.9%
Second compound 0.01 µM, first compound 0.316 µM
  viability, T/C: 87.9%
Second compound 0.01 µM, first compound 1 µM
  viability, T/C: 111%
Second compound 0.01 µM, first compound 3.16 µM
  viability, T/C: 121%
Second compound 0.01 µM, first compound 10 µM
  viability, T/C: 102%
Second compound 0.0316 µM, first compound 0.0316 µM
  viability, T/C: 109%
Second compound 0.0316 µM, first compound 0.1 µM
  viability, T/C: 98.6%
Second compound 0.0316 µM, first compound 0.316 µM
  viability, T/C: 102%
Second compound 0.0316 µM, first compound 1 µM
  viability, T/C: 112%
Second compound 0.0316 µM, first compound 3.16 µM
  viability, T/C: 115%
Second compound 0.0316 µM, first compound 10 µM
  viability, T/C: 99.5%
Second compound 0.1 µM, first compound 0.0316 µM
  viability, T/C: 98%
Second compound 0.1 µM, first compound 0.1 µM
  viability, T/C: 95%
Second compound 0.1 µM, first compound 0.316 µM
  viability, T/C: 93.6%
Second compound 0.1 µM, first compound 1 µM
  viability, T/C: 94.8%
Second compound 0.1 µM, first compound 3.16 µM
  viability, T/C: 89.4%
Second compound 0.1 µM, first compound 10 µM
  viability, T/C: 80.2%
Second compound 0.316 µM, first compound 0.0316 µM
  viability, T/C: 77%
Second compound 0.316 µM, first compound 0.1 µM
  viability, T/C: 66.4%
Second compound 0.316 µM, first compound 0.316 µM
  viability, T/C: 65.7%
Second compound 0.316 µM, first compound 1 µM
  viability, T/C: 58.5%
Second compound 0.316 µM, first compound 3.16 µM
  viability, T/C: 66.8%
Second compound 0.316 µM, first compound 10 µM
  viability, T/C: 51.6%
Second compound 1 µM, first compound 0.0316 µM
  viability, T/C: 59%
Second compound 1 µM, first compound 0.1 µM
  viability, T/C: 46.1%
Second compound 1 µM, first compound 0.316 µM
  viability, T/C: 46.8%
Second compound 1 µM, first compound 1 µM
  viability, T/C: 46.5%
Second compound 1 µM, first compound 3.16 µM
  viability, T/C: 52.7%
Second compound 1 µM, first compound 10 µM
  viability, T/C: 34.9%
